Experimental data: PubChem BioAssay (NCI)
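A five-concentration, 48-hour dose response in 96-well plates underlies each endpoint, interpolated linearly between surrounding concentrations. Here, GI50 denotes the concentration required for 50% inhibition of growth. Definition used: TGI = concentration required for complete inhibition of growth.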

What was measured:
Experiment in all cases: NCI-60 cell line screen, 48 h
EKVX NSCLC = system: EKVX NSCLC
PC-3 prostate = system: PC-3 prostate
SN12C renal = system: SN12C renal
NCI-H23 lung = system: NCI-H23 lung
A498 renal = system: A498 renal
OVCAR-5 ovarian = system: OVCAR-5 ovarian
ACHN renal = system: ACHN renal
MCF7 breast = system: MCF7 breast
M14 melanoma = system: M14 melanoma
SF-539 CNS = system: SF-539 CNS
IGROV1 ovarian = system: IGROV1 ovarian
OVCAR-3 ovarian = system: OVCAR-3 ovarian
MOLT-4 leukemia = system: MOLT-4 leukemia
MDA-MB-231 breast = system: MDA-MB-231 breast
OVCAR-8 ovarian = system: OVCAR-8 ovarian
HCT-116 colon = system: HCT-116 colon
COLO 205 colon = system: COLO 205 colon
SF-268 CNS = system: SF-268 CNS
MDA-MB-435 = system: MDA-MB-435
SK-MEL-2 melanoma = system: SK-MEL-2 melanoma
RPMI-8226 leukemia = system: RPMI-8226 leukemia
U251 CNS = system: U251 CNS
HCT-15 colon = system: HCT-15 colon
HOP-62 NSCLC = system: HOP-62 NSCLC
SW-620 colon = system: SW-620 colon
SK-MEL-28 melanoma = system: SK-MEL-28 melanoma
A549 NSCLC = system: A549 NSCLC
BT-549 breast = system: BT-549 breast
SK-OV-3 ovarian = system: SK-OV-3 ovarian
HCC-2998 colon = system: HCC-2998 colon
NCI-H226 lung = system: NCI-H226 lung
LOX IMVI melanoma = system: LOX IMVI melanoma
CAKI-1 renal = system: CAKI-1 renal
UACC-257 melanoma = system: UACC-257 melanoma
SR leukemia = system: SR leukemia
HS 578T breast = system: HS 578T breast
HT29 colon = system: HT29 colon
MALME-3M melanoma = system: MALME-3M melanoma
NCI/ADR-RES ovarian = system: NCI/ADR-RES ovarian
NCI-H522 lung = system: NCI-H522 lung
TK-10 renal = system: TK-10 renal
CCRF-CEM leukemia = system: CCRF-CEM leukemia
KM12 colon = system: KM12 colon
SNB-75 CNS = system: SNB-75 CNS
DU-145 prostate = system: DU-145 prostate
SF-295 CNS = system: SF-295 CNS
UACC-62 melanoma = system: UACC-62 melanoma
RXF 393 renal = system: RXF 393 renal
NCI-H460 lung = system: NCI-H460 lung
SK-MEL-5 melanoma = system: SK-MEL-5 melanoma
SNB-19 CNS = system: SNB-19 CNS
OVCAR-4 ovarian = system: OVCAR-4 ovarian
K-562 leukemia = system: K-562 leukemia
T-47D breast = system: T-47D breast
UO-31 renal = system: UO-31 renal
HOP-92 NSCLC = system: HOP-92 NSCLC
786-0 renal = system: 786-0 renal

CC(=O)c1cc(C(=O)c2ccc3c(c2)Sc2ccccc2N3)c2c(C)cc(C)cn12
GI50 (EKVX NSCLC): 0.636 µM | TGI (EKVX NSCLC): > 100 µM | GI50 (PC-3 prostate): 0.362 µM | TGI (PC-3 prostate): > 100 µM | GI50 (SN12C renal): 0.724 µM | TGI (SN12C renal): > 100 µM | GI50 (NCI-H23 lung): 0.482 µM | TGI (NCI-H23 lung): > 100 µM | GI50 (A498 renal): 0.0765 µM | TGI (A498 renal): 0.686 µM | GI50 (OVCAR-5 ovarian): 0.794 µM | TGI (OVCAR-5 ovarian): > 100 µM | GI50 (ACHN renal): 0.605 µM | TGI (ACHN renal): > 40.1 µM | GI50 (MCF7 breast): 0.239 µM | TGI (MCF7 breast): > 100 µM | GI50 (M14 melanoma): 0.253 µM | TGI (M14 melanoma): > 100 µM | GI50 (SF-539 CNS): 0.185 µM | TGI (SF-539 CNS): 0.535 µM | GI50 (IGROV1 ovarian): 0.596 µM | TGI (IGROV1 ovarian): > 100 µM | GI50 (OVCAR-3 ovarian): 0.222 µM | TGI (OVCAR-3 ovarian): 0.596 µM | GI50 (MOLT-4 leukemia): 0.465 µM | TGI (MOLT-4 leukemia): > 100 µM | GI50 (MDA-MB-231 breast): 0.458 µM | TGI (MDA-MB-231 breast): 8.95 µM | GI50 (OVCAR-8 ovarian): 0.405 µM | TGI (OVCAR-8 ovarian): > 100 µM | GI50 (HCT-116 colon): 0.263 µM | TGI (HCT-116 colon): > 100 µM | GI50 (COLO 205 colon): 0.222 µM | TGI (COLO 205 colon): 0.535 µM | GI50 (SF-268 CNS): 0.533 µM | TGI (SF-268 CNS): > 46.3 µM | GI50 (MDA-MB-435): 0.0468 µM | TGI (MDA-MB-435): 0.237 µM | GI50 (SK-MEL-2 melanoma): 0.317 µM | TGI (SK-MEL-2 melanoma): > 100 µM | GI50 (RPMI-8226 leukemia): 0.361 µM | TGI (RPMI-8226 leukemia): > 27.9 µM | GI50 (U251 CNS): 0.396 µM | TGI (U251 CNS): > 100 µM | GI50 (HCT-15 colon): 0.344 µM | TGI (HCT-15 colon): > 100 µM | GI50 (HOP-62 NSCLC): 0.394 µM | TGI (HOP-62 NSCLC): > 63 µM | GI50 (SW-620 colon): 0.372 µM | TGI (SW-620 colon): > 100 µM | GI50 (SK-MEL-28 melanoma): 3.64 µM | TGI (SK-MEL-28 melanoma): > 100 µM | GI50 (A549 NSCLC): 0.337 µM | TGI (A549 NSCLC): > 55.6 µM | GI50 (BT-549 breast): 0.368 µM | TGI (BT-549 breast): > 21.3 µM | GI50 (SK-OV-3 ovarian): 0.342 µM | GI50 (HCC-2998 colon): 0.494 µM | TGI (HCC-2998 colon): > 100 µM | GI50 (NCI-H226 lung): 0.73 µM | TGI (NCI-H226 lung): > 100 µM | GI50 (LOX IMVI melanoma): 0.73 µM | TGI (LOX IMVI melanoma): > 100 µM | GI50 (CAKI-1 renal): 0.529 µM | TGI (CAKI-1 renal): 72.9 µM | GI50 (UACC-257 melanoma): 2.04 µM | TGI (UACC-257 melanoma): > 100 µM | GI50 (SR leukemia): 0.302 µM | TGI (SR leukemia): > 100 µM | GI50 (HS 578T breast): 0.343 µM | TGI (HS 578T breast): > 36 µM | GI50 (HT29 colon): 0.315 µM | TGI (HT29 colon): 0.962 µM | GI50 (MALME-3M melanoma): 5.73 µM | TGI (MALME-3M melanoma): > 100 µM | GI50 (NCI/ADR-RES ovarian): 0.264 µM | TGI (NCI/ADR-RES ovarian): 8.16 µM | GI50 (NCI-H522 lung): 0.16 µM | TGI (NCI-H522 lung): 1.08 µM | GI50 (TK-10 renal): 1.31 µM | TGI (TK-10 renal): > 100 µM | GI50 (CCRF-CEM leukemia): 0.277 µM | TGI (CCRF-CEM leukemia): > 100 µM | GI50 (KM12 colon): 0.353 µM | TGI (KM12 colon): > 46.7 µM | GI50 (SNB-75 CNS): 0.171 µM | TGI (SNB-75 CNS): 1.5 µM | GI50 (DU-145 prostate): 0.395 µM | TGI (DU-145 prostate): > 47.3 µM | GI50 (SF-295 CNS): 0.187 µM | TGI (SF-295 CNS): 0.94 µM | GI50 (UACC-62 melanoma): 0.254 µM | TGI (UACC-62 melanoma): > 100 µM | GI50 (RXF 393 renal): 0.162 µM | TGI (RXF 393 renal): 0.699 µM | GI50 (NCI-H460 lung): 0.311 µM | GI50 (SK-MEL-5 melanoma): 0.402 µM | TGI (SK-MEL-5 melanoma): 2.13 µM | GI50 (SNB-19 CNS): 0.443 µM | TGI (SNB-19 CNS): > 100 µM | GI50 (OVCAR-4 ovarian): 2.2 µM | TGI (OVCAR-4 ovarian): > 100 µM | GI50 (K-562 leukemia): 0.222 µM | TGI (K-562 leukemia): > 100 µM | GI50 (T-47D breast): 12.8 µM | TGI (T-47D breast): > 100 µM | GI50 (UO-31 renal): 0.635 µM | TGI (UO-31 renal): > 100 µM | GI50 (HOP-92 NSCLC): 1.24 µM | TGI (HOP-92 NSCLC): > 31 µM | GI50 (786-0 renal): 0.465 µM | TGI (786-0 renal): > 21.5 µM
